Test [1] concerns Candida albicans. The test is described as follows: Antifungal activity against Candida albicans ATCC 14503. The class given is functional.
The test system of another test is Nakaseomyces glabratus. Nature of the test: Antifungal activity against Candida glabrata. Type of test: functional.
Test [2] has as its system Candida albicans. The test is described as follows: Antifungal activity against fluconazole-resistant Candida albicans UCD FR1. Type of test: functional, organism-based.

The structures appear in SMILES notation. ≈ marks a conversion by molar mass, not a printed value. Calls of active or inactive are those of the source. The calls are words filed in the database; no cut-off is given here.

In the case of `OC(Cn1cncn1)(Cn1cncn1)c1ccc(F)cc1F` [FLUCONAZOLE], in the test on Candida albicans [1], it took 1 µM (≈ 0.306 µg/mL) to inhibit growth (MIC).

`CCC/C(Br)=C/C=C/CC[C@H]1C[C@@H]1CCC(=O)O` [MAJUSCULOIC ACID]: the MIC (commonly the lowest concentration that inhibits growth of the organism) against Nakaseomyces glabratus stood at 19.3 µM (≈ 6.08 µg/mL); in the test with Candida albicans [1], 8 µM (≈ 2.52 µg/mL). In addition, the result in the test with Candida albicans [2] was inactive.

The values are drawn from ChEMBL document CHEMBL1158741, “Majusculoic acid, a brominated cyclopropyl fatty acid from a marine cyanobacterial mat assemblage” (2005).
